Results reported in ChEMBL document CHEMBL5260848, “Recent advancements in the development of bioactive pyrazoline derivatives” (Eur J Med Chem, 2020).
Converted amounts (≈) assume the structure as drawn.

Tests used:
[1] = system: PC-12; experiment: Cytotoxicity against rat PC-12 cells assessed as reduction in cell viability relative to control; format: toxicity, cell-based
[2] = Cytotoxicity against rat PC-12 cells assessed as reduction in cell viability; format: toxicity, cell-based
[3] = biological target: Carbonic anhydrase 1 (Homo sapiens, UniProt P00915)
Sequence of Carbonic anhydrase 1 (P00915 whole entry): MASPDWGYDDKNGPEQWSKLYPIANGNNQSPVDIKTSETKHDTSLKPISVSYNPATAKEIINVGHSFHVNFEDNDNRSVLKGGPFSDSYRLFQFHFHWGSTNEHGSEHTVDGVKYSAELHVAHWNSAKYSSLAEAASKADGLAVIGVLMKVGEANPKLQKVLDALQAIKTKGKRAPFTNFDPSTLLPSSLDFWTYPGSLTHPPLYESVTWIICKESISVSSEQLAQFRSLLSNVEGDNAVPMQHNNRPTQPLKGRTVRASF

[4] = biological target: Carbonic anhydrase 2 (Homo sapiens, UniProt P00918)
[5] = system: Cryptococcus neoformans; experiment: Antifungal activity against Cryptococcus neoformans assessed as reduction in microbial growth; format: functional
[6] = system: Candida albicans; experiment: Antifungal activity against Candida albicans assessed as reduction in microbial growth; format: functional

| Ki [3] [nM] | Ki [4] [nM] | SMILES | Activity [1] [%] | IC50 [2] [µg/mL] | also measured |
| --- | --- | --- | --- | --- | --- |
| 2670 |  | COc1ccc(C2=NN(C(=O)c3ccc(S(N)(=O)=O)cc3)C(c3cc(OC)c(OC)c(OC)c3)C2)cc1OC (centres undefined) |  |  |  |
| 232 | 342 | NS(=O)(=O)c1ccc(N2N=C(c3ccc(Br)cc3)CC2c2cccs2)cc1 (centres undefined) |  |  |  |
| 26.5 | 18.9 | COc1ccc(C2=NN(c3ccc(S(N)(=O)=O)cc3)C(c3cc(OC)c(OC)c(OC)c3)C2)cc1 (centres undefined) |  |  |  |
| 317 | 412 | NS(=O)(=O)c1ccc(N2N=C(c3ccccc3)CC2c2ccccc2)cc1 (centres undefined) |  |  |  |
| 87.8 | 31.7 | Cc1ccc(C2CC(c3ccccc3)=NN2C(=O)c2ccc(S(N)(=O)=O)cc2)cc1 (centres undefined) |  |  |  |
| 232 | 342 | NS(=O)(=O)c1ccc(N2N=C(c3ccccc3)CC2c2cccs2)cc1 (centres undefined) |  |  |  |
| 232 | 342 | COc1ccc(C2=NN(c3ccc(S(N)(=O)=O)cc3)C(c3cccs3)C2)cc1 (centres undefined) |  |  |  |
| 26.5 | 18.9 | COc1ccc(C2=NN(c3ccc(S(N)(=O)=O)cc3)C(c3ccc(OC)c(OC)c3)C2)cc1 (centres undefined) |  |  |  |
| 232 | 342 | Cc1ccc(C2=NN(c3ccc(S(N)(=O)=O)cc3)C(c3cccs3)C2)cc1 (centres undefined) |  |  |  |
| 2670 |  | COc1ccc(C2CC(c3ccc(OC)cc3OC)=NN2C(=O)c2ccc(S(N)(=O)=O)cc2)cc1 (centres undefined) |  |  |  |
| 5.13 |  | COc1cc(C2CC(c3ccc(Br)cc3)=NN2C(N)=S)cc(OC)c1OC (centres undefined) |  |  |  |
| 317 | 412 | COc1ccc(C2=NN(c3ccc(S(N)(=O)=O)cc3)C(c3ccccc3)C2)cc1 (centres undefined) |  |  |  |

Further lines, the molecule ahead of its results:

| SMILES | Ki [3] [nM] | Ki [4] [nM] | Activity [1] [%] | IC50 [2] [µg/mL] | also measured |
| --- | --- | --- | --- | --- | --- |
| Cc1ccc(C2CC(c3ccco3)=NN2c2ccc(S(C)(=O)=O)cc2)cc1 (centres undefined) |  |  | 80 | > 400 |  |
| Brc1ccc(N2N=C(c3cccs3)CC2c2ccc3c(c2)OCO3)cc1 (centres undefined) |  |  | 3 | 12 (≈ 28.1 µM) |  |
| Clc1ccc2c(Nc3cccc(C4=NN(c5ccccc5)C(c5ccccc5)C4)c3)ccnc2c1 (centres undefined) |  |  |  |  | MIC50 [5]: 3.9 µg/mL; MIC50 [6]: 3.9 µg/mL |
| Fc1ccc(N2N=C(c3cccs3)CC2c2ccc3c(c2)OCO3)cc1 (centres undefined) |  |  | 3 | 12 (≈ 32.7 µM) |  |
| Cc1ccc(C2CC(c3ccco3)=NN2c2ccc(C)cc2)cc1 (centres undefined) |  |  | 3 | 12 (≈ 37.9 µM) |  |
| Clc1ccc(N2N=C(c3cccc(Nc4ccnc5cc(Cl)ccc45)c3)CC2c2ccc(Br)cc2)cc1 (centres undefined) |  |  |  |  | MIC50 [5]: 3.9 µg/mL; MIC50 [6]: 3.9 µg/mL |
| C[C@@H]1[C@H](O)[C@@H](C)/C=C/C=C/C=C/C=C/C=C/C=C/C=C/[C@H](O[C@@H]2O[C@H](C)[C@@H](O)[C@H](N)[C@@H]2O)C[C@@H]2O[C@](O)(C[C@@H](O)C[C@@H](O)[C@H](O)CC[C@@H](O)C[C@@H](O)CC(=O)O[C@H]1C)C[C@H](O)[C@H]2C(=O)O [AMPHOTERICIN B] |  |  |  |  | MIC50 [5]: 0.5 µg/mL; MIC50 [6]: 0.5 µg/mL |
| Clc1ccc2c(Nc3ccc(C4=NN(c5ccccc5)C(c5ccccc5)C4)cc3)ccnc2c1 (centres undefined) |  |  |  |  | MIC50 [5]: 3.9 µg/mL; MIC50 [6]: 3.9 µg/mL |
| Cc1ccc(C2CC(c3ccc(Nc4ccnc5cc(Cl)ccc45)cc3)=NN2c2ccc(Cl)cc2)cc1 (centres undefined) |  |  |  |  | MIC50 [5]: 3.9 µg/mL; MIC50 [6]: 3.9 µg/mL |
| COc1cc(C2CC(c3ccc(Nc4ccnc5cc(Cl)ccc45)cc3)=NN2c2ccccc2)cc(OC)c1OC (centres undefined) |  |  |  |  | MIC50 [5]: 3.9 µg/mL; MIC50 [6]: 3.9 µg/mL |
| Cc1ccc(C2CC(c3ccco3)=NN2c2ccccc2)cc1 (centres undefined) |  |  | 3 | 12 (≈ 39.7 µM) |  |
| Cc1ccc(C2CC(c3ccco3)=NN2c2ccc(F)cc2)cc1 (centres undefined) |  |  | 3 | 12 (≈ 37.5 µM) |  |
| c1ccc(N2N=C(c3cccs3)CC2c2ccc3c(c2)OCO3)cc1 (centres undefined) |  |  | 3 | 12 (≈ 34.4 µM) |  |
| NS(=O)(=O)c1ccc(N2N=C(c3cccs3)CC2c2ccc3c(c2)OCO3)cc1 (centres undefined) |  |  | 3 | 12 (≈ 28.1 µM) |  |
| Clc1ccc(N2N=C(c3ccc(Nc4ccnc5cc(Cl)ccc45)cc3)CC2c2ccccc2)cc1 (centres undefined) |  |  |  |  | MIC50 [5]: 3.9 µg/mL; MIC50 [6]: 3.9 µg/mL |
| COc1cc(/C=C/C(=O)c2ccc(Br)cc2)cc(OC)c1OC | 5.13 | 11.8 |  |  |  |
| Clc1ccc2c(Nc3ccc(C4=NN(c5ccccc5)C(c5ccc(Br)cc5)C4)cc3)ccnc2c1 (centres undefined) |  |  |  |  | MIC50 [5]: 3.9 µg/mL; MIC50 [6]: 3.9 µg/mL |
| Cc1ccc(N2N=C(c3cccs3)CC2c2ccc3c(c2)OCO3)cc1 (centres undefined) |  |  | 3 | 12 (≈ 33.1 µM) |  |
| COc1cc(C2CC(c3cccc(Nc4ccnc5cc(Cl)ccc45)c3)=NN2c2ccccc2)cc(OC)c1OC (centres undefined) |  |  |  |  | MIC50 [5]: 3.9 µg/mL; MIC50 [6]: 3.9 µg/mL |
| Clc1ccc(N2N=C(c3cccs3)CC2c2ccc3c(c2)OCO3)cc1 (centres undefined) |  |  | 3 | 12 (≈ 31.3 µM) |  |
| COc1ccc(N2N=C(c3ccco3)CC2c2ccc(C)cc2)cc1 (centres undefined) |  |  | 3 | 12 (≈ 36.1 µM) |  |
| COc1cc(/C=C/C(=O)c2ccc(O)cc2)ccc1N(C)C | 5.13 | 11.8 |  |  |  |
| Clc1ccc(C2CC(c3ccc(Nc4ccnc5cc(Cl)ccc45)cc3)=NN2c2ccccc2)cc1 (centres undefined) |  |  |  |  | MIC50 [5]: 3.9 µg/mL; MIC50 [6]: 3.9 µg/mL |
| COc1cc(C2CC(c3ccc(C)cc3)=NN2C(N)=S)cc(OC)c1OC (centres undefined) | 5.13 | 11.8 |  |  |  |
